The test has as its system PC-3 cells. Put plainly: Lectin staining of tagged cells, flow cytometry. Format: cell-based. Conditions: 200 micromolar, three days. As to the method: FIGS. 9A and 9B show lectin staining of alkynyl-derivatized Fuc 1-tagged PC-3 prostate cancer cells. Cells were treated with 200 micromolar derivatized alkynyl-derivatized Fuc 1, or Fuc 3, or left untreated. After three days, cells were labeled with biotin-conjugated AAL/fluorescein-conjugated streptavidin shown in FIG. 9A or fluorescein-conjugated UEA-I shown in FIG. 9B. Fluorescent signal was detected by flow cytometry. AAL was used to detect α-1,6- or α-1,3-linked Fuc; UEA-I was used to detect α-1,2-linked Fuc. Filled histogram: untreated cells without lectin stain; open histogram c: untreated cells stained with lectin; open histogram b: control Fuc 3-treated cells stained with lectin; open histogram a: alkynyl-derivatized Fuc 1-treated cells stained with lectin. AAL, Aleuria Aurantia Lectin; UEA-1, Ulex Europaeus Agglutinin I.
PC-3 cells were grown in RPMI 1640 (Invitrogen) supplemented with 10% FCS and peracetylated alkynyl Fuc 1 or control Fuc 3 for 3 days at 37° C. Cells were then harvested, washed with 1% FCS/PBS, resuspended (5×10^5 cells) in 100 μl of staining solution (1 μg/ml lectin conjugates in 1% FCS/PBS). Cells were then incubated on ice for 30 min and washed twice with 1% FCS/PBS. […] Data were acquired by FACSCalibur, and were analyzed by CellQuestPro software (BD Biosciences).
(In general: In flow cytometry, cells or beads pass a laser one at a time.)

Here are results for 1 substance from patent US10317393B2, “Alkynyl sugar analogs for labeling and visualization of glycoconjugates in cells” (Academia Sinica, priority 2007, dated 2019).

On to “1,2,3,4-tetraacetyl alkynyl fucose [alkynyl Fuc 1]”, for which the “binding of Ulex Europaeus Agglutinin I (UEA-1) to treated cells versus control” value is reported as “significantly lower avidity” and the “binding of aleuria aurantia lectin to treated cells versus control” value was “significantly lower avidity”.
